# Experiment: in vitro
# Settings: human, hela cells, % viability
row,Compound,"viability at 28.5 h, 10 µM [%]"
1,Cc1ncc([N+](=O)[O-])n1Cc1nnc(S)n1C [CBK267873],95.4
2,CCS(=O)(=O)c1nc2ccccc2n1CC(=O)Nc1ccccc1C(=O)OC [CBK267877],90
3,Cc1ccccc1CSc1nc2ccc([N+](=O)[O-])cc2[nH]1 [CBK267879],96.2
4,NCCCNc1ccc(C(=O)Nc2ccc(Cl)cc2)cc1[N+](=O)[O-] [CBK267880],116
5,COCCCn1c(CCC(=O)O)ccc1-c1ccc(F)cc1 [CBK267886],104
6,Cc1cc(OC(C)C(=O)Nc2ccc(S(=O)(=O)Nc3onc(C)c3C)cc2)cc(C)c1Cl (stereo not drawn) [CBK267887],98.7
7,CCn1c(COc2ccccc2)nnc1Sc1ccc([N+](=O)[O-])cc1C=O [CBK267888],105
8,COc1ccc(S(=O)(=O)N(C)CC(=O)Nc2ccc(C(N)=O)cc2)cc1Cl [CBK267891],109
9,Nc1n[nH]c(SCC(=O)N2CCN(C(c3ccccc3)c3ccccc3)CC2)n1 [CBK267893],86.5
10,COc1ccc(S(=O)(=O)N(C)CC(=O)N2CCOCC2)cc1C [CBK267898],95.8
11,S=C1NCN(Cc2ccc3c(c2)OCO3)CN1 [CBK267899],87.1
12,O=C(CSc1nnc(-c2ccncc2)n1-c1ccccc1)Nc1ccnc2ccccc12 [CBK267900],101
13,O=C(CNC(=O)C1CCCCC1)NNC(=O)c1sc2ccccc2c1Cl [CBK267903],98.8
14,COc1ccc(NC(=O)CSc2nc(N)cc(O)n2)c([N+](=O)[O-])c1 [CBK267904],101
15,O=C(O)CCCC(=O)Nc1cc(C(=O)O)ccc1Cl [CBK267907],116
16,CCN(CC(=O)Nc1ccc(OC)c(Cl)c1)S(=O)(=O)c1ccc2ccccc2c1 [CBK267910],92.9
17,CC(C)c1nnc(SCc2ccc(CSc3nnc(C(C)C)n3N)cc2)n1N [CBK267911],101
18,CCN1CCN(C(=O)CN(CC)S(=O)(=O)c2ccc3ccccc3c2)CC1 [CBK267913],101
19,Cc1ccc(CNC(=O)CSc2nc(N)n[nH]2)cc1 [CBK267914],103
20,NS(=O)(=O)c1ccc(NC(=O)c2ccc(COc3ccccc3)o2)cc1 [CBK267915],104
21,COc1ccc(S(=O)(=O)N(C)CC(=O)Nc2ccc(Br)cc2F)cc1Cl [CBK267916],81.3

row,Compound,"viability at 28.5 h, 10 µM [%]"
1,Cc1cc(C(=O)O)ccc1NC(=O)CCCC(=O)O [CBK267917],90.8
2,CCn1cc(C(=O)O)c(=O)c2cc(F)c(N3CCN(C(=S)Nc4ccc(F)c(Cl)c4)CC3)cc21 [CBK267921],97.5
3,CCOc1cc(/C=C(/C#N)c2nc3ccccc3[nH]2)ccc1OCc1ccc(C(=O)O)o1 [CBK267923],88.9
4,CCOc1ccc(N(Cc2cc3cc(C)ccc3nc2O)S(=O)(=O)c2ccccc2)cc1 [CBK267924],120
5,Nc1cc(O)nc(SCC(=O)N2CCN(c3ccccc3)CC2)n1 [CBK267925],86
6,O=C(O)Cn1nnc(-c2ccc(C(=O)O)cc2)n1 [CBK267926],85
7,N#C/C(=C\c1ccc(N2CCN(c3ccc(F)cc3)CC2)c([N+](=O)[O-])c1)c1nn(-c2ccccc2)c(N)c1C#N [CBK267927],95.7
8,CCn1cc(C(=O)O)c(=O)c2cnc(N3CCN(C(=S)Nc4cc5oc6ccccc6c5cc4OC)CC3)nc21 [CBK267929],101
9,CCn1cc(C(=O)O)c(=O)c2cnc(N3CCN(C(=S)Nc4ccc5c(c4)OCO5)CC3)nc21 [CBK267930],90.6
10,CC(=O)Nc1ccc(S(=O)(=O)NC2(C(F)(F)F)N=C(c3ccccc3)NC2=O)cc1 (stereo not drawn) [CBK267932],113
11,CCc1cccc(C)c1NC(=O)CN(c1ccc(Br)c(C)c1)S(C)(=O)=O [CBK267935],102
12,O=C(CSc1ccc(Cl)cc1)Nc1cccc2nsnc12 [CBK267936],90.8
13,COc1ccccc1C(=O)Nc1ccccc1N1CCN(C)CC1 [CBK267938],91.8
14,O=C(NCCOCc1ccc(Cl)cc1)c1cc(-n2cnnc2)ccc1Cl [CBK267939],101
15,COC(=O)c1ccsc1NC(=O)CN1CCN(Cc2ccc3c(c2)OCO3)CC1 [CBK267940],97.6
16,COCCCn1c(CCC(=O)O)ccc1-c1cccs1 [CBK267942],121
17,CCCc1oc(C(=O)O)cc1CN(CC)CC [CBK267943C],92.1
18,O=C1CC(C(=O)O)SC(NNC(=O)c2ccccc2)=N1 (stereo not drawn) [CBK267944],91.2
19,CC(C(=O)O)N(c1ccc(Cl)cc1)S(C)(=O)=O (stereo not drawn) [CBK267945],111
20,O=C(CS(=O)(=O)c1ccccc1)Nc1cccc2nsnc12 [CBK267949],97.4
21,O=C(O)C1CCCCC1C(=O)Nc1ccc(S(=O)(=O)N2CCCCC2)cc1 (stereo not drawn) [CBK267950],109

row,Compound,"viability at 28.5 h, 10 µM [%]"
1,O=c1c2ccccc2[nH]c(=S)n1CCCN1CCC(Cc2ccccc2)CC1 [CBK267952],86.2
2,OC(Cn1ccc2ccccc21)Cn1c(Cc2ccccc2)nc2ccccc21 (stereo not drawn) [CBK267954],97.7
3,CN(C)S(=O)(=O)N(CC(=O)Nc1cccnc1)c1ccccc1 [CBK267958],119
4,O=C(NCCCN1CCCC1)Nc1ccccc1[N+](=O)[O-] [CBK267959],97
5,Nc1nonc1-c1nc2ccccc2n1Cc1cc2c(cc1Br)OCO2 [CBK267961],105
6,CCOc1ccc(CNc2ccc(S(N)(=O)=O)cc2)cc1 [CBK267962],89.3
7,c1ccc2oc(NC3=NCN(Cc4ccc5c(c4)OCO5)CN3)nc2c1 [CBK267964],95.1
8,N#Cc1ccccc1CSc1nc(N)cc(O)n1 [CBK267967],98.3
9,N#Cc1c(NC(=O)CN2CCN(Cc3ccccc3)CC2)sc2c1CCCC2 [CBK267969],99.6
10,O=C(CN1CCCCC1)Nc1sc2c(c1C(=O)Nc1ccccc1)CCCC2 [CBK267974],104
11,S=C(Nc1ccccc1)N(CCN1CCOCC1)Cc1cccc(Cl)c1 [CBK267975],103
12,COc1cc(/C=C/c2[nH]c(=O)[nH]c(=O)c2[N+](=O)[O-])cc(Br)c1OCC(=O)O [CBK267977],91.5
13,Cc1cc(OCCCC(=O)Nc2cccc([N+](=O)[O-])c2)cc(C)c1Cl [CBK267978],97.8
14,CC(Oc1ccc(-c2ccccc2)cc1)C(=O)Nc1ccc(S(N)(=O)=O)cc1 (stereo not drawn) [CBK267979],87.2
15,CCn1c(SCC(=O)Nc2cccc([N+](=O)[O-])c2)nnc1-c1cc(Br)ccc1O [CBK267980],86
16,Cc1ccc([N+](=O)[O-])cc1NC(=O)CN(Cc1ccc(Cl)cc1)S(C)(=O)=O [CBK267981],87.8
17,CS(=O)(=O)N(CC(=O)NCc1ccccn1)Cc1ccc(Cl)cc1 [CBK267982],94.6
18,NC(=O)c1ccccc1NC(=O)CSc1nc(N)cc(N)n1 [CBK267983],115
19,CCCc1oc(C(=O)O)cc1CN1CCOCC1 [CBK267984C],106
20,COc1ccc(S(=O)(=O)N2CCC(C(=O)Nc3cccc(F)c3)CC2)cc1C [CBK267987],92
21,COc1ccccc1Oc1nnnn1-c1ccc(C(N)=O)cc1 [CBK267988],96

# Source: paper PMC12040169 (PLOS Biology, 2025)
